Assay results reported in PubChem BioAssay (NCI).
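A five-concentration, 48-hour dose response in 96-well plates underlies each endpoint, interpolated linearly between surrounding concentrations. TGI is the concentration that stops growth completely.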

Columns and labels:
Assay in all cases: NCI tumour cell line growth inhibition, 48 h
NCI-H23 lung = test system: NCI-H23 lung
SF-539 CNS = test system: SF-539 CNS
HCC-2998 colon = test system: HCC-2998 colon
SF-295 CNS = test system: SF-295 CNS
SK-MEL-2 melanoma = test system: SK-MEL-2 melanoma
MOLT-4 leukemia = test system: MOLT-4 leukemia
UACC-62 melanoma = test system: UACC-62 melanoma
OVCAR-8 ovarian = test system: OVCAR-8 ovarian
RPMI-8226 leukemia = test system: RPMI-8226 leukemia
SK-MEL-28 melanoma = test system: SK-MEL-28 melanoma
IGROV1 ovarian = test system: IGROV1 ovarian
HT29 colon = test system: HT29 colon
HS 578T breast = test system: HS 578T breast
HCT-15 colon = test system: HCT-15 colon
HCT-116 colon = test system: HCT-116 colon
SR leukemia = test system: SR leukemia
U251 CNS = test system: U251 CNS
MDA-MB-435 = test system: MDA-MB-435
ACHN renal = test system: ACHN renal
SF-268 CNS = test system: SF-268 CNS
M14 melanoma = test system: M14 melanoma
HOP-62 NSCLC = test system: HOP-62 NSCLC
MCF7 breast = test system: MCF7 breast
CCRF-CEM leukemia = test system: CCRF-CEM leukemia
DU-145 prostate = test system: DU-145 prostate
A498 renal = test system: A498 renal
COLO 205 colon = test system: COLO 205 colon
K-562 leukemia = test system: K-562 leukemia
786-0 renal = test system: 786-0 renal
OVCAR-3 ovarian = test system: OVCAR-3 ovarian
SK-OV-3 ovarian = test system: SK-OV-3 ovarian
HL-60(TB) leukemia = test system: HL-60(TB) leukemia
BT-549 breast = test system: BT-549 breast
CAKI-1 renal = test system: CAKI-1 renal
HOP-92 NSCLC = test system: HOP-92 NSCLC
NCI-H522 lung = test system: NCI-H522 lung
SNB-19 CNS = test system: SNB-19 CNS
PC-3 prostate = test system: PC-3 prostate
NCI-H226 lung = test system: NCI-H226 lung
SN12C renal = test system: SN12C renal
TK-10 renal = test system: TK-10 renal
EKVX NSCLC = test system: EKVX NSCLC
MALME-3M melanoma = test system: MALME-3M melanoma
SW-620 colon = test system: SW-620 colon
NCI/ADR-RES ovarian = test system: NCI/ADR-RES ovarian
T-47D breast = test system: T-47D breast
UACC-257 melanoma = test system: UACC-257 melanoma
RXF 393 renal = test system: RXF 393 renal
UO-31 renal = test system: UO-31 renal
OVCAR-4 ovarian = test system: OVCAR-4 ovarian
MDA-N = test system: MDA-N
MDA-MB-231 breast = test system: MDA-MB-231 breast
A549 NSCLC = test system: A549 NSCLC
SK-MEL-5 melanoma = test system: SK-MEL-5 melanoma
NCI-H460 lung = test system: NCI-H460 lung
OVCAR-5 ovarian = test system: OVCAR-5 ovarian
LOX IMVI melanoma = test system: LOX IMVI melanoma
KM12 colon = test system: KM12 colon
SNB-75 CNS = test system: SNB-75 CNS

Nc1nc(-c2cccnc2)cc(-c2cc(-c3cccnc3)nc(N)n2)n1
TGI (NCI-H23 lung): > 100 µM | TGI (SF-539 CNS): > 100 µM | TGI (HCC-2998 colon): > 100 µM | TGI (SF-295 CNS): > 100 µM | TGI (SK-MEL-2 melanoma): > 100 µM | TGI (MOLT-4 leukemia): > 100 µM | TGI (UACC-62 melanoma): > 100 µM | TGI (OVCAR-8 ovarian): > 100 µM | TGI (RPMI-8226 leukemia): > 100 µM | TGI (SK-MEL-28 melanoma): > 100 µM | TGI (IGROV1 ovarian): > 100 µM | TGI (HT29 colon): > 100 µM | TGI (HS 578T breast): > 100 µM | TGI (HCT-15 colon): > 100 µM | TGI (HCT-116 colon): > 100 µM | TGI (SR leukemia): > 100 µM | TGI (U251 CNS): > 100 µM | TGI (MDA-MB-435): > 100 µM | TGI (ACHN renal): > 100 µM | TGI (SF-268 CNS): > 100 µM | TGI (M14 melanoma): > 100 µM | TGI (HOP-62 NSCLC): > 100 µM | TGI (MCF7 breast): > 100 µM | TGI (CCRF-CEM leukemia): > 100 µM | TGI (DU-145 prostate): > 100 µM | TGI (A498 renal): > 100 µM | TGI (COLO 205 colon): > 100 µM | TGI (K-562 leukemia): > 100 µM | TGI (786-0 renal): > 100 µM | TGI (OVCAR-3 ovarian): > 100 µM | TGI (SK-OV-3 ovarian): > 100 µM | TGI (HL-60(TB) leukemia): > 100 µM | TGI (BT-549 breast): > 100 µM | TGI (CAKI-1 renal): > 100 µM | TGI (HOP-92 NSCLC): > 100 µM | TGI (NCI-H522 lung): > 100 µM | TGI (SNB-19 CNS): > 100 µM | TGI (PC-3 prostate): > 100 µM | TGI (NCI-H226 lung): > 100 µM | TGI (SN12C renal): > 100 µM | TGI (TK-10 renal): > 100 µM | TGI (EKVX NSCLC): > 100 µM | TGI (MALME-3M melanoma): > 100 µM | TGI (SW-620 colon): > 100 µM | TGI (NCI/ADR-RES ovarian): > 100 µM | TGI (T-47D breast): > 100 µM | TGI (UACC-257 melanoma): > 100 µM | TGI (RXF 393 renal): > 100 µM | TGI (UO-31 renal): > 100 µM | TGI (OVCAR-4 ovarian): > 100 µM | TGI (MDA-N): > 100 µM | TGI (MDA-MB-231 breast): > 100 µM | TGI (A549 NSCLC): > 100 µM | TGI (SK-MEL-5 melanoma): > 100 µM | TGI (NCI-H460 lung): > 100 µM | TGI (OVCAR-5 ovarian): > 100 µM | TGI (LOX IMVI melanoma): > 100 µM | TGI (KM12 colon): > 100 µM

C[N+]1(C(CO)Cc2c[nH]c3ccccc23)Cc2ccccc2C1 (centres undefined)
TGI (NCI-H23 lung): > 100 µM | TGI (HCC-2998 colon): > 100 µM | TGI (SF-295 CNS): > 100 µM | TGI (SK-MEL-2 melanoma): > 100 µM | TGI (MOLT-4 leukemia): > 100 µM | TGI (UACC-62 melanoma): > 100 µM | TGI (OVCAR-8 ovarian): > 100 µM | TGI (RPMI-8226 leukemia): > 100 µM | TGI (SK-MEL-28 melanoma): > 100 µM | TGI (IGROV1 ovarian): > 100 µM | TGI (HT29 colon): > 100 µM | TGI (HS 578T breast): > 100 µM | TGI (HCT-15 colon): > 100 µM | TGI (HCT-116 colon): > 100 µM | TGI (SR leukemia): > 100 µM | TGI (U251 CNS): > 100 µM | TGI (MDA-MB-435): > 100 µM | TGI (ACHN renal): > 100 µM | TGI (SF-268 CNS): > 100 µM | TGI (M14 melanoma): > 100 µM | TGI (HOP-62 NSCLC): > 100 µM | TGI (MCF7 breast): > 100 µM | TGI (CCRF-CEM leukemia): > 100 µM | TGI (DU-145 prostate): > 100 µM | TGI (A498 renal): > 100 µM | TGI (COLO 205 colon): > 100 µM | TGI (SNB-75 CNS): > 100 µM | TGI (K-562 leukemia): > 100 µM | TGI (786-0 renal): > 100 µM | TGI (OVCAR-3 ovarian): > 100 µM | TGI (SK-OV-3 ovarian): > 100 µM | TGI (HL-60(TB) leukemia): > 100 µM | TGI (BT-549 breast): > 100 µM | TGI (CAKI-1 renal): > 100 µM | TGI (HOP-92 NSCLC): > 100 µM | TGI (NCI-H522 lung): > 100 µM | TGI (SNB-19 CNS): > 100 µM | TGI (PC-3 prostate): > 100 µM | TGI (NCI-H226 lung): > 100 µM | TGI (SN12C renal): > 100 µM | TGI (TK-10 renal): > 100 µM | TGI (EKVX NSCLC): > 100 µM | TGI (MALME-3M melanoma): 81 µM | TGI (SW-620 colon): > 100 µM | TGI (NCI/ADR-RES ovarian): > 100 µM | TGI (T-47D breast): > 100 µM | TGI (UACC-257 melanoma): > 100 µM | TGI (RXF 393 renal): > 100 µM | TGI (UO-31 renal): > 100 µM | TGI (OVCAR-4 ovarian): > 100 µM | TGI (MDA-N): > 100 µM | TGI (MDA-MB-231 breast): > 100 µM | TGI (A549 NSCLC): > 100 µM | TGI (SK-MEL-5 melanoma): > 100 µM | TGI (NCI-H460 lung): > 100 µM | TGI (OVCAR-5 ovarian): > 100 µM | TGI (LOX IMVI melanoma): > 100 µM | TGI (KM12 colon): > 100 µM

CCS1=C2C(=O)CC(C)(C)CC2=Nc2ccccc21 (centres undefined)
TGI (NCI-H23 lung): > 100 µM | TGI (HCC-2998 colon): > 100 µM | TGI (SF-295 CNS): > 100 µM | TGI (SK-MEL-2 melanoma): > 100 µM | TGI (MOLT-4 leukemia): > 100 µM | TGI (UACC-62 melanoma): > 100 µM | TGI (OVCAR-8 ovarian): > 100 µM | TGI (RPMI-8226 leukemia): > 100 µM | TGI (SK-MEL-28 melanoma): > 100 µM | TGI (IGROV1 ovarian): > 100 µM | TGI (HT29 colon): > 100 µM | TGI (HS 578T breast): > 100 µM | TGI (HCT-15 colon): > 100 µM | TGI (HCT-116 colon): > 100 µM | TGI (SR leukemia): > 100 µM | TGI (U251 CNS): > 100 µM | TGI (MDA-MB-435): > 100 µM | TGI (ACHN renal): > 100 µM | TGI (SF-268 CNS): > 100 µM | TGI (M14 melanoma): > 100 µM | TGI (HOP-62 NSCLC): > 100 µM | TGI (MCF7 breast): > 100 µM | TGI (CCRF-CEM leukemia): > 100 µM | TGI (DU-145 prostate): > 100 µM | TGI (A498 renal): > 100 µM | TGI (COLO 205 colon): > 100 µM | TGI (SNB-75 CNS): > 100 µM | TGI (K-562 leukemia): > 100 µM | TGI (786-0 renal): > 100 µM | TGI (OVCAR-3 ovarian): > 100 µM | TGI (SK-OV-3 ovarian): > 100 µM | TGI (HL-60(TB) leukemia): > 100 µM | TGI (BT-549 breast): > 100 µM | TGI (CAKI-1 renal): > 100 µM | TGI (HOP-92 NSCLC): > 100 µM | TGI (NCI-H522 lung): > 100 µM | TGI (SNB-19 CNS): > 100 µM | TGI (PC-3 prostate): > 100 µM | TGI (NCI-H226 lung): > 100 µM | TGI (SN12C renal): > 100 µM | TGI (TK-10 renal): > 100 µM | TGI (EKVX NSCLC): > 100 µM | TGI (MALME-3M melanoma): > 100 µM | TGI (SW-620 colon): > 100 µM | TGI (NCI/ADR-RES ovarian): > 100 µM | TGI (T-47D breast): > 100 µM | TGI (UACC-257 melanoma): > 100 µM | TGI (RXF 393 renal): > 100 µM | TGI (UO-31 renal): > 100 µM | TGI (OVCAR-4 ovarian): > 100 µM | TGI (MDA-N): > 100 µM | TGI (MDA-MB-231 breast): > 100 µM | TGI (A549 NSCLC): > 100 µM | TGI (SK-MEL-5 melanoma): > 100 µM | TGI (NCI-H460 lung): > 100 µM | TGI (OVCAR-5 ovarian): > 100 µM | TGI (LOX IMVI melanoma): > 100 µM | TGI (KM12 colon): > 100 µM
